We go through 33 compounds from patent US20260347319A1, “YAP/TAZ-TEAD ONCOPROTEINS INHIBITORS” (BridGene Biosciences, Inc., priority 2022, published 2026).

Molecules are shown by their SMILES. Where only a bound is given, the exact number is not on record here.

This experiment relates to TEAD1. As to the kind of experiment: MCF-7 TEAD1-luciferase reporter assay (MCF7-TEAD-Luc). In kind it is cell-based. The note with it: MCF7 cells, overnight; for IC50: Homo sapiens; for TEAD1-Luc MCF7: Max Inhibition: % of DMSO-treated control. Here is the method:
The ability of compounds to inhibit TEAD-dependent transcription was assessed in the MCF7-TEAD-Luc reporter assay (BPS #60618). Cells were seeded at 10,000 cells in 200 μL per well into white wall, clear bottom 96-well plates (Corning #3610) and incubated at 37° C. for 24 hours, then treated with serial diluted compounds overnight, and luciferase signal was measured using the ONE-Step Luciferase Assay System (BPS #60690) using an EnSight Multimode plate reader (PerkinElmer, model #MLDHH34000000, integration time 100 ms) with Kaleido 3.0. software. For data analysis, dose-dependent curves were plotted as “% inhibition” (% of DMSO-treated control wells), and were fitted by four-parametric model in GraphPad Prism to obtain IC50 values.
(In general: In a reporter assay the amount or activity of a reporter protein is the signal.)

`C=CC(=O)N1CCC2(CC(c3ccc(C(F)(F)F)cc3)=CO2)C1` (single isomer, unassigned) [Example 98, 1-(3-(4-(trifluoromethyl)phenyl)-1-oxa-7-azaspiro[4.4]non-2-en-7-yl)prop-2-en-1-one]: the IC50 is > 500 nM and the “TEAD1-Luc MCF7: Max Inhibition” value is “C (50% > C ≥ 2%)”.

In the case of `C=CC(=O)N1CC[C@H]([C@@H](O)/C=C/c2ccc(C(F)(F)F)cc2)C1` (single isomer, unassigned) [Example 103], the IC50 was 100 to 500 nM and the “TEAD1-Luc MCF7: Max Inhibition” value was “B (75% > B ≥ 50%)”.

As for `C=CC(=O)N1CC[C@H]([C@H](O)/C=C/c2ccc(C(F)(F)F)cc2)C1` (single isomer, unassigned) [Example 104], the IC50 fell in the range of 100 to 500 nM and the “TEAD1-Luc MCF7: Max Inhibition” value was “B (75% > B ≥ 50%)”.

On to `C=CC(=O)N1C[C@H](C)[C@@H](/C=C/c2ccc(C(F)(F)F)cc2)C1` (stereo in doubt) [Example 40, 1-[(3R*,4R*)-3-methyl-4-{2-[4-(trifluoromethyl)phenyl]ethenyl}pyrrolidin-1-yl]prop-2-en-1-one], for which the 50% inhibitory concentration (IC50) was > 500 nM and the “TEAD1-Luc MCF7: Max Inhibition” value is on record as “A (A ≥ 75%)”.

In the case of `C=CC(=O)N1CC(C/C=C/c2cc(C(F)(F)F)on2)C1` [Example 2, 1-{3-[(2E)-3-[5-(trifluoromethyl)-1,2-oxazol-3-yl]prop-2-en-1-yl]azetidin-1-yl}prop-2-en-1-one], the IC50 is ≤ 10 nM and the “TEAD1-Luc MCF7: Max Inhibition” value is reported as “A (A ≥ 75%)”.

With `C=CC(=O)N1CC(/C=C/c2ccc(C(F)(F)F)c(OC)c2)C1` [Example 3, 1-{3-[(E)-2-[3-methoxy-4-(trifluoromethyl)phenyl]ethenyl]azetidin-1-yl}prop-2-en-1-one], the IC50 is ≤ 10 nM and the “TEAD1-Luc MCF7: Max Inhibition” value is given as “B (75% > B ≥ 50%)”.

With `C=CC(=O)N1CC(/C=C/c2ccc(C(F)(F)F)c(F)c2)C1` [Example 4, 1-{3-[(E)-2-[3-fluoro-4-(trifluoromethyl)phenyl]ethenyl]azetidin-1-yl}prop-2-en-1-one], the IC50 was ≤ 10 nM and the “TEAD1-Luc MCF7: Max Inhibition” value was “A (A ≥ 75%)”.

As for `C=CC(=O)N1CCC(/C=C/c2ccc(C(F)(F)F)cc2)CC1` [Example 6], the IC50 was in the range of 10 to 100 nM and the “TEAD1-Luc MCF7: Max Inhibition” value is on record as “B (75% > B ≥ 50%)”.

Regarding `C=CC(=O)N1CC(F)(/C=C/c2cc(C(F)(F)F)on2)C1` [Example 7, (E)-1-(3-fluoro-3-(2-(5-(trifluoromethyl)isoxazol-3-yl)vinyl)azetidin-1-yl)prop-2-en-1-one], the IC50 was ≤ 10 nM and the “TEAD1-Luc MCF7: Max Inhibition” value is recorded as “A (A ≥ 75%)”.

As for `C=CC(=O)N1CC(F)(/C=C\c2cc(C(F)(F)F)on2)C1` [Example 8, (Z)-1-(3-fluoro-3-(2-(5-(trifluoromethyl)isoxazol-3-yl)vinyl)azetidin-1-yl)prop-2-en-1-one], the IC50 was ≤ 10 nM and the “TEAD1-Luc MCF7: Max Inhibition” value is listed as “A (A ≥ 75%)”.

Regarding `C=CC(=O)N1CC(C)(/C=C/c2cc(C(F)(F)F)on2)C1` [Example 16, 1-(3-methyl-3-(2-(5-(trifluoromethyl)isoxazol-3-yl)vinyl)azetidin-1-yl)prop-2-en-1-one], the IC50 was ≤ 10 nM and the “TEAD1-Luc MCF7: Max Inhibition” value is recorded as “A (A ≥ 75%)”.

For `C=CC(=O)N1CC(/C=C/c2ccc(C(F)(F)F)cc2)(OC)C1` [Example 17], the concentration for half-maximal inhibition (IC50) is ≤ 10 nM and the “TEAD1-Luc MCF7: Max Inhibition” value is “B (75% > B ≥ 50%)”.

With `C=CC(=O)N1CC(C)(/C=C/c2ccc(C(F)(F)F)cc2)C1` [Example 18], the IC50 is ≤ 10 nM and the “TEAD1-Luc MCF7: Max Inhibition” value was “A (A ≥ 75%)”.

Take `C=CC(=O)N1CC(/C=C/c2ccc(C(F)(F)F)cc2OC)C1` [Example 19, 1-(3-(2-methoxy-4-(trifluoromethyl)styryl)azetidin-1-yl)prop-2-en-1-one]: the IC50 was in the range of 10 to 100 nM and the “TEAD1-Luc MCF7: Max Inhibition” value is reported as “C (50% > C ≥ 2%)”.

As for `C=CC(=O)N1CC2(CC(/C=C/c3ccc(C(F)(F)F)cc3)C2)C1` [Example 20], the 50% inhibitory concentration (IC50) is 100 to 500 nM and the “TEAD1-Luc MCF7: Max Inhibition” value is listed as “B (75% > B ≥ 50%)”.

For the compound `C=CC(=O)N1CC2(CC(/C=C/c3cc(C(F)(F)F)on3)C2)C1` [Example 22, 1-{6-[(E)-2-[5-(trifluoromethyl)-1,2-oxazol-3-yl]ethenyl]-2-azaspiro[3.3]heptan-2-yl}prop-2-en-1-one], the IC50 lay within 10 to 100 nM and the “TEAD1-Luc MCF7: Max Inhibition” value is on record as “B (75% > B ≥ 50%)”.

Consider `C=CC(=O)N1CC2(CC(/C=C\c3cc(C(F)(F)F)on3)C2)C1` [Example 23, 1-{6-[(Z)-2-[5-(trifluoromethyl)-1,2-oxazol-3-yl]ethenyl]-2-azaspiro[3.3]heptan-2-yl}prop-2-en-1-one], for which the IC50 lay within 10 to 100 nM and the “TEAD1-Luc MCF7: Max Inhibition” value was “B (75% > B ≥ 50%)”.

On to `C=CC(=O)N1CC2(CCC(/C=C/c3cc(C(F)(F)F)on3)CC2)C1` [Example 24, 1-{7-[(E)-2-[5-(trifluoromethyl)-1,2-oxazol-3-yl]ethenyl]-2-azaspiro[3.5]nonan-2-yl}prop-2-en-1-one], for which the IC50 is > 500 nM and the “TEAD1-Luc MCF7: Max Inhibition” value is recorded as “C (50% > C ≥ 2%)”.

In the case of `C=CC(=O)N1CC2(CCC(/C=C\c3cc(C(F)(F)F)on3)CC2)C1` [Example 25, 1-{7-[(Z)-2-[5-(trifluoromethyl)-1,2-oxazol-3-yl]ethenyl]-2-azaspiro[3.5]nonan-2-yl}prop-2-en-1-one], the IC50 is 100 to 500 nM and the “TEAD1-Luc MCF7: Max Inhibition” value is “B (75% > B ≥ 50%)”.

In the case of `C=CC(=O)N1CC(/C=C\c2cc(C(F)(F)F)on2)C1` [Example 26, 1-{3-[(Z)-2-[5-(trifluoromethyl)-1,2-oxazol-3-yl]ethenyl]azetidin-1-yl}prop-2-en-1-one], the IC50 was 10 to 100 nM and the “TEAD1-Luc MCF7: Max Inhibition” value is on record as “B (75% > B ≥ 50%)”.

`C=CC(=O)N1C[C@@H](CC)[C@H](/C=C\c2ccc(C(F)(F)F)cc2)C1` [Example 31, 1-{3-ethyl-4-[(Z)-2-[4-(trifluoromethyl)phenyl]ethenyl]pyrrolidin-1-yl}prop-2-en-1-one]: the IC50 lay in the range of 100 to 500 nM and the “TEAD1-Luc MCF7: Max Inhibition” value is listed as “A (A ≥ 75%)”.

As to `C=CC(=O)N1C[C@@H](CC)[C@H](/C=C/c2ccc(C(F)(F)F)cc2)C1` [Example 32, 1-{3-ethyl-4-[(E)-2-[4-(trifluoromethyl)phenyl]ethenyl]pyrrolidin-1-yl}prop-2-en-1-one], the IC50 lay in the range of 100 to 500 nM and the “TEAD1-Luc MCF7: Max Inhibition” value is given as “A (A ≥ 75%)”.

Consider `C=CC(=O)N1CCC(/C=C/c2ccc(C(F)(F)F)cc2)(OC)C1` (stereo not drawn) [Example 35, (E)-1-(3-methoxy-3-(4-(trifluoromethyl)styryl)pyrrolidin-1-yl)prop-2-en-1-one], for which the IC50 was 10 to 100 nM and the “TEAD1-Luc MCF7: Max Inhibition” value is reported as “A (A ≥ 75%)”.

Consider `C=CC(=O)N1CC(C#N)(/C=C/c2ccc(C(F)(F)F)cc2)C1` [Example 37], for which the IC50 fell in the range of 10 to 100 nM and the “TEAD1-Luc MCF7: Max Inhibition” value is given as “A (A ≥ 75%)”.

In the case of `C=CC(=O)N1CC2(CC=C(c3ccc(C(F)(F)F)cc3)CC2)C1` [Example 46, 1-(7-(4-(trifluoromethyl)phenyl)-2-azaspiro[3.5]non-6-en-2-yl)prop-2-en-1-one], the IC50 was in the range of 10 to 100 nM and the “TEAD1-Luc MCF7: Max Inhibition” value is on record as “B (75% > B ≥ 50%)”.

`C=CC(=O)N1CC2(C=C(c3ccc(C(F)(F)F)cc3)CC2)C1` [Example 47, 1-(6-(4-(trifluoromethyl)phenyl)-2-azaspiro[3.4]oct-5-en-2-yl)prop-2-en-1-one]: the IC50 is ≤ 10 nM and the “TEAD1-Luc MCF7: Max Inhibition” value is listed as “C (50% > C ≥ 2%)”.

In the case of `C=CC(=O)N1CC2(CC=C(c3ccc(C(F)(F)F)cc3)C2)C1` [Example 48, 1-(6-(4-(trifluoromethyl)phenyl)-2-azaspiro[3.4]oct-6-en-2-yl)prop-2-en-1-one], the IC50 was in the range of 100 to 500 nM and the “TEAD1-Luc MCF7: Max Inhibition” value was “B (75% > B ≥ 50%)”.

Turning to `C=CC(=O)N1CC(c2cc3ccc(C(F)(F)F)cc3o2)C1` [Example 49, 1-{3-[6-(trifluoromethyl)-1-benzofuran-2-yl]azetidin-1-yl}prop-2-en-1-one], the IC50 lay within 100 to 500 nM and the “TEAD1-Luc MCF7: Max Inhibition” value is on record as “B (75% > B ≥ 50%)”.

On to `C=CC(=O)N1CC(c2cc3cc(C(F)(F)F)ccn3n2)C1` [Example 50, 1-(3-(5-(trifluoromethyl)pyrazolo[1,5-a]pyridin-2-yl)azetidin-1-yl)prop-2-en-1-one], for which the IC50 was ≤ 10 nM and the “TEAD1-Luc MCF7: Max Inhibition” value is given as “B (75% > B ≥ 50%)”.

With `C=CC(=O)N1CC(c2cc3ccc(C(F)(F)F)cn3n2)C1` [Example 51, 1-(3-(6-(trifluoromethyl)pyrazolo[1,5-a]pyridin-2-yl)azetidin-1-yl)prop-2-en-1-one], the IC50 is 10 to 100 nM and the “TEAD1-Luc MCF7: Max Inhibition” value is listed as “B (75% > B ≥ 50%)”.

`C=CC(=O)N1CC(c2cc3ccc(C(F)(F)F)cc3[nH]2)C1` [Example 52, 1-{3-[6-(trifluoromethyl)-1H-indol-2-yl]azetidin-1-yl}prop-2-en-1-one]: the IC50 was 10 to 100 nM and the “TEAD1-Luc MCF7: Max Inhibition” value was “A (A ≥ 75%)”.

Regarding `C=CC(=O)N1CC(c2cc3ccc(C(F)(F)F)cc3n2C)C1` [Example 53, 1-{3-[1-methyl-6-(trifluoromethyl)indol-2-yl]azetidin-1-yl}prop-2-en-1-one], the 50% inhibitory concentration (IC50) was in the range of 100 to 500 nM and the “TEAD1-Luc MCF7: Max Inhibition” value is reported as “B (75% > B ≥ 50%)”.

In the case of `C=CC(=O)N1CCC(/C=C/c2cccc(C(F)(F)F)c2)CC1` [Example 54, (E)-1-(4-(3-(trifluoromethyl)styryl)piperidin-1-yl)prop-2-en-1-one], the IC50 is 100 to 500 nM and the “TEAD1-Luc MCF7: Max Inhibition” value is on record as “B (75% > B ≥ 50%)”.

A word on the IC50: it is the midpoint of a concentration-inhibition curve. High values mean weaker potency, low ones greater potency.
